*1 amine or outer side, *2 acyl side, *3 side chain or, on linkers, in order; H or OH if unused. Bridges are numbered along the chain shown (N, C = ends). Roman numbers before positions name the chains, in order. Side-chain parts run from the residue outwards. The star is where a group is joined. C18 diacid = O=C(O)CCCCCCCCCCCCCCCCC(=O)*; NMe2Phe = CN(C)[C@@H](Cc1ccccc1)C(=O)*; γGlu = O=C(O)[C@H](CCC(=O)[*:2])N[*:1]; AEEA = NCCOCCOCC(=O)O; Me2Gly = CN(C)CC(=O)*
How the values were obtained:
[1] = GLP-1 peptide degradation by GI extracts in presence of BBI; format: in vitro ADME, Sprague Dawley rats; settings: half-life with 0.1% BBI divided by half-life without BBI, rat GI juice
Method: 96 well plates were coated by incubating with 0.4% BSA solution for a minimum of 60 min. To each well, 210 μl of buffer (HBSS-HEPES buffer with 0.005% Tween 20 and 0.005% BSA, pH 6.5), 30 μl of a substrate (100 μM GLP-1 peptide in buffer) and 30 μl of BBI (1%) were added. The plates were pre-incubated (before adding GI juice) for 60 min at 37° C. After addition of 30 μl of GI juice, the plates were incubated for 60 min/37° C. on shaker. Samples (40 μl) were taken at 0, 3, 6, 10, 30 and 60 min, stopped with 3 vol. cold 96% EtOH w. 1% HCOOH and centrifuged (4500 rcf for 10 min at 4° C.). The resulting supernatant from the samples were diluted 5 times with the buffer prior to LC-MS analysis. Standard samples (0.1, 0.5, 1.0, 5.0, 10.0 μM) were prepared and treated as the samples. Standard curve was analysed both at the beginning and the end of the sequence. Two replicates of each tested conditions were included. Intact GLP-1 peptide was determined in each sample. The results were plotted against the incubation time. Half-lives of the GLP-1 peptide was determined by nonlinear regression of the results using, for example Graph Pad Prism. The half-lives were expressed relative to the half-life of the GLP-1 peptide without BBI present by dividing the half-lives obtained in the presence of inhibitor with those obtained in the absence of BBI. […]

[2] = Transport of GLP-1 peptide across mucus-producing E12 cell monolayers in the presence of sodium caprate and BBI; format: in vitro ADME; settings: for Papp A→B at 100 µM: human
Method: Buffer was then removed and the experiment initiated. […] Receiver samples (200 μl) were taken every 15 min.
In all samples with GLP-1 peptide and mannitol, the concentration of GLP-1 peptide was determined using a LOCI assay (or LC-MS assay) and scintillation counter, respectively.

[3] = Insulin peptide degradation by GI extracts in presence of BBI; format: in vitro ADME, Sprague Dawley rats; settings: rat; for half-life at 10 µM: male, Sprague Dawley, real gastrointestinal fluid or homogenate
Method: 96 well plates were coated by incubating with 0.4% BSA solution for minimum of 60 min. […] The plates were pre-incubated (before adding GI juice) for 60 min at 37° C. After addition of 30 μl of GI juice, the plates were incubated for 60 min/37° C. on shaker. Samples (40 μl) were taken at 0, 3, 6, 10, 30 and 60 min, stopped with 3 vol. cold 96% EtOH (ethanol) w. 1% HCOOH (formic acid) and centrifuged (4500 rcf for 10 min at 4° C.). The resulting supernatant from the samples were diluted 5 times with the buffer prior to LC-MS analysis. Standard samples (0.1, 0.5, 1.0, 5.0, 10.0 μM) were prepared and treated as the samples. Standard curve was analysed both at the beginning and the end of the sequence. Two replicates of each tested conditions were included. […] The results were plotted against the incubation time. […] GI juice was prepared from male Sprague Dawley rats (200-250 g) by excising approximately 20 cm piece of mid jejunum and rinsing the inside with 2.5 ml 0.9% sodium chloride solution. The sodium chloride solution was collected in a centrifuge tube, pooled from all rats (20) and centrifuged at 4500 rpm./10 min/4° C. The supernatant was aliquoted in tubes and stored at −80° C.

[4] = pH 7.4, apical to basolateral, 100 μM GLP-1 peptide + 13 mM sodium caprate, without BBI
[5] = pH 7.4, apical to basolateral, 100 μM GLP-1 peptide + 13 mM sodium caprate + 0.2% BBI

With `CC[C@H](C)[C@H](NC(=O)[C@H](Cc1ccccc1)NC(=O)[C@H](CCC(=O)O)NC(=O)[C@H](CCCCNC(=O)COCCOCCNC(=O)COCCOCCNC(=O)CC[C@H](NC(=O)CCCCCCCCCCCCCCCCC(=O)O)C(=O)O)NC(=O)[C@H](C)NC(=O)[C@H](C)NC(=O)[C@H](CCC(N)=O)NC(=O)CNC(=O)[C@H](CCC(=O)O)NC(=O)[C@H](CC(C)C)NC(=O)[C@H](Cc1ccc(O)cc1)NC(=O)[C@H](CO)NC(=O)[C@H](CO)NC(=O)[C@@H](NC(=O)[C@H](CC(=O)O)NC(=O)[C@H](CO)NC(=O)[C@@H](NC(=O)[C@H](Cc1ccccc1)NC(=O)[C@@H](NC(=O)CNC(=O)[C@H](CCC(=O)O)NC(=O)C(C)(C)NC(=O)[C@@H](N)Cc1cnc[nH]1)[C@@H](C)O)[C@@H](C)O)C(C)C)C(=O)N[C@@H](C)C(=O)N[C@@H](Cc1c[nH]c2ccccc12)C(=O)N[C@@H](CC(C)C)C(=O)N[C@H](C(=O)N[C@@H](CCCNC(=N)N)C(=O)NCC(=O)N[C@@H](CCCNC(=N)N)C(=O)NCC(=O)O)C(C)C` [GLP-1 peptide 1, N{Epsilon-26}-[2-[2-[2-[[2-[2-[2-[[(4S)-4-carboxy-4-(17-carboxy-heptadecanoylamino)butanoyl]amino]ethoxy]ethoxy]acetyl]amino]ethoxy]ethoxy]acetyl]-[Aib8,Arg34]-GLP-1-(7-37)-peptide] the “Half Life (fold increase)” value [1] was greater than 15 fold, the Papp A→B at 100 µM [2, 4] was 0.148 ×10⁻⁶ cm/s and the Papp A→B at 100 µM ([2]; pH 7.4, with Bowman Birk inhibitor (BBI) 0.2%, apical to basolateral, 100 μM GLP-1 peptide + 13 mM sodium caprate + 0.2% BBI) was 0.319 ×10⁻⁶ cm/s.

Compound `CC[C@H](C)[C@H](NC(=O)[C@H](Cc1ccccc1)NC(=O)[C@H](CCC(=O)O)NC(=O)[C@H](CCCCNC(=O)COCCOCCNC(=O)COCCOCCNC(=O)CC[C@H](NC(=O)CCCCCCCCCCCCCCCCC(=O)O)C(=O)O)NC(=O)[C@H](C)NC(=O)[C@H](C)NC(=O)[C@H](CCC(N)=O)NC(=O)CNC(=O)[C@H](CCC(=O)O)NC(=O)[C@H](CC(C)C)NC(=O)[C@H](Cc1ccc(O)cc1)NC(=O)[C@H](CO)NC(=O)[C@H](CO)NC(=O)[C@@H](NC(=O)[C@H](CC(=O)O)NC(=O)[C@H](CO)NC(=O)[C@@H](NC(=O)[C@H](Cc1ccccc1)NC(=O)[C@@H](NC(=O)CNC(=O)[C@H](CCC(=O)O)NC(=O)C(C)(C)NC(=O)[C@@H](N)Cc1c[nH]cn1)[C@@H](C)O)[C@@H](C)O)C(C)C)C(=O)N[C@@H](C)C(=O)N[C@@H](Cc1c[nH]cn1)C(=O)N[C@@H](CC(C)C)C(=O)N[C@H](C(=O)N[C@@H](CCC(N)=O)C(=O)NCC(=O)N[C@@H](CCCNC(=N)N)C(=O)NCC(=O)O)C(C)C` [GLP-1 peptide 8, N{Epsilon-26}-[2-[2-[2-[[2-[2-[2-[[(4S)-4-carboxy-4-(17-carboxy-heptadecanoylamino)butanoyl]amino]ethoxy]ethoxy]acetyl]amino]ethoxy]ethoxy]acetyl]-[Aib8,His31,Gln34]-GLP-1-(7-37)-peptide] has a Papp A→B [2, 5] of 0.363 ×10⁻⁶ cm/s and a Papp A→B [2, 4] of 0.184 ×10⁻⁶ cm/s.

With `CC[C@H](C)[C@H](NC(=O)[C@H](Cc1ccccc1)NC(=O)[C@H](CCC(=O)O)NC(=O)[C@H](CCCCNC(=O)COCCOCCNC(=O)COCCOCCNC(=O)CC[C@H](NC(=O)CCCCCCCCCOc1ccc(C(=O)O)cc1)C(=O)O)NC(=O)[C@H](C)NC(=O)[C@H](C)NC(=O)[C@H](CCC(N)=O)NC(=O)CNC(=O)[C@H](CCC(=O)O)NC(=O)[C@H](CC(C)C)NC(=O)[C@H](Cc1ccc(O)cc1)NC(=O)[C@H](CO)NC(=O)[C@H](CO)NC(=O)[C@@H](NC(=O)[C@H](CC(=O)O)NC(=O)[C@H](CO)NC(=O)[C@@H](NC(=O)[C@H](Cc1ccccc1)NC(=O)[C@@H](NC(=O)CNC(=O)[C@H](CCC(=O)O)NC(=O)C(C)(C)NC(=O)[C@@H](N)Cc1c[nH]cn1)[C@@H](C)O)[C@@H](C)O)C(C)C)C(=O)N[C@@H](C)C(=O)N[C@@H](Cc1c[nH]c2ccccc12)C(=O)N[C@@H](CC(C)C)C(=O)N[C@H](C(=O)N[C@@H](CCCNC(=N)N)C(=O)NCC(=O)N[C@@H](CCCNC(=N)N)C(=O)N[C@@H](CCCCNC(=O)COCCOCCNC(=O)COCCOCCNC(=O)CC[C@H](NC(=O)CCCCCCCCCOc1ccc(C(=O)O)cc1)C(=O)O)C(=O)O)C(C)C` [GLP-1 peptide 9, N{Epsilon-26}-[2-[2-[2-[[2-[2-[2-[[(4S)-4-carboxy-4-[10-(4-carboxyphenoxy)-decanoylamino]butanoyl]amino]ethoxy]ethoxy]acetyl]amino]ethoxy]ethoxy]acetyl], N{Epsilon-37}-[2-[2-[2-[[2-[2-[2-[[(4S)-4-carboxy-4-[10-(4-carboxyphenoxy)decanoylamino]butanoyl]-amino]ethoxy]ethoxy]acetyl]amino]ethoxy]ethoxy]acetyl]-[Aib8,Arg34, Lys37]-GLP-1-(7-37)-peptide] the Papp A→B [2, 5] was 0.379 ×10⁻⁶ cm/s and the Papp A→B [2, 4] was 0.272 ×10⁻⁶ cm/s.

In the case of “I: NMe2Phe-VNQHLCGSHLVEALYLVCGERGFHYTPK([AEEA-AEEA-γGlu-C18 diacid])-OH / II: Me2Gly-IVEQCCTSICSLEQLENYCN-OH (disulfide I:6-II:6, I:18-II:19, II:5-II:10) [Insulin 2, N{A1},N{A1}-dimethyl,N{B1},N{B1}-dimethyl,N{Epsilon-B29}-[2-[2-[2-[[2-[2-[2-[[(4S)-4-carboxy-4-(17-carboxyheptadecanoylamino)butanoyl]amino]ethoxy]ethoxy]acetyl]amino]-ethoxy]ethoxy]acetyl]-[GluA14,HisB25],des-ThrB30-Insulin(human)]”, the half-life at 10 µM ([3]; pH 6.5, Half Life of insulin peptide) is reported as 1.1 min, the half-life at 10 µM ([3]; pH 6.5, Half Life of insulin peptide in presence of 0.1% BBI) is reported as greater than 1000 min and the “Half Life (fold increase)” value [3] is reported as greater than 910 fold.
